ChEMBL document CHEMBL1201862, “PubChem BioAssay data set” (2004)
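Compound exposure: 48 hours, 5 concentrations, 96-well plates. GI50 = concentration required for 50% inhibition of growth.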 Activity calls are given as the source filed them. Rule as the data show it: active = GI50 up to about 1.1 µM and inactive = higher.

Tests used:
Experiment in all cases: NCI anticancer screen, dose series, 48 h
HOP-92 = tested on: HOP-92
KM12 = tested on: KM12
SK-MEL-28 = tested on: SK-MEL-28
Malme-3M = tested on: Malme-3M
TK-10 = tested on: TK-10
ACHN = tested on: ACHN
SF-268 = tested on: SF-268
SN12C = tested on: SN12C
MOLT-4 = tested on: MOLT-4
SK-OV-3 = tested on: SK-OV-3
UACC-257 = tested on: UACC-257
OVCAR-8 = tested on: OVCAR-8
SK-MEL-2 = tested on: SK-MEL-2
NCI-H23 = tested on: NCI-H23
IGROV-1 = tested on: IGROV-1
NCI-H226 = tested on: NCI-H226
UACC-62 = tested on: UACC-62
A498 = tested on: A498
OVCAR-5 = tested on: OVCAR-5

Measured: GI50

CCC(CC)NC1=C(NC(C)=O)C(=O)c2ccccc2C1=O
inactive: KM12 > 50 µM | SK-MEL-28 > 50 µM | Malme-3M 45.4 µM | TK-10 > 50 µM | ACHN > 50 µM | SF-268 > 50 µM | SN12C > 50 µM | MOLT-4 > 50 µM | SK-OV-3 > 50 µM | UACC-257 > 50 µM | OVCAR-8 > 50 µM | SK-MEL-2 > 50 µM | NCI-H23 > 50 µM | IGROV-1 > 50 µM | NCI-H226 > 50 µM | UACC-62 > 50 µM
active: HOP-92 0.339 µM

Cc1ccc(S(=O)(=O)NC2(C=O)CCCC3CCCCC32)cc1 (centres undefined)
inactive: KM12 > 100 µM | SK-MEL-28 > 100 µM | Malme-3M > 100 µM | TK-10 > 100 µM | ACHN > 100 µM | SF-268 > 100 µM | SN12C > 100 µM | MOLT-4 > 100 µM | SK-OV-3 > 100 µM | UACC-257 > 100 µM | A498 > 100 µM | OVCAR-8 > 100 µM | SK-MEL-2 > 100 µM | IGROV-1 > 100 µM | NCI-H226 > 100 µM | UACC-62 > 100 µM

COc1ccc(NC(=O)CC(=O)N/N=C/c2ccc(N(CCC#N)S(C)(=O)=O)cc2)cc1
inactive: KM12 > 100 µM | SK-MEL-28 > 100 µM | Malme-3M > 100 µM | TK-10 > 100 µM | ACHN > 100 µM | SF-268 > 100 µM | SN12C > 100 µM | MOLT-4 > 100 µM | SK-OV-3 > 100 µM | A498 > 100 µM | OVCAR-8 > 100 µM | SK-MEL-2 > 100 µM | NCI-H23 > 100 µM | IGROV-1 > 100 µM | NCI-H226 > 100 µM | UACC-62 > 100 µM | OVCAR-5 > 100 µM

CC(=O)OC12C=CC(=O)N1c1ccccc1C(=O)O2 (centres undefined)
active: Malme-3M 0.962 µM
inactive: HOP-92 > 100 µM | KM12 > 100 µM | SK-MEL-28 > 100 µM | TK-10 > 100 µM | ACHN > 100 µM | SF-268 > 100 µM | SN12C > 100 µM | MOLT-4 > 100 µM | SK-OV-3 > 100 µM | UACC-257 > 100 µM | OVCAR-8 > 100 µM | SK-MEL-2 > 100 µM | NCI-H23 > 100 µM | IGROV-1 > 100 µM | NCI-H226 > 100 µM | UACC-62 > 100 µM | OVCAR-5 > 100 µM

CC(=O)O[C@]12CCCCC1C1(O)C(O)CCCC[C@H]12 (some centres undefined)
inactive: KM12 > 100 µM | SK-MEL-28 > 100 µM | Malme-3M > 100 µM | TK-10 > 100 µM | ACHN > 100 µM | SF-268 > 100 µM | SN12C > 100 µM | MOLT-4 > 100 µM | SK-OV-3 > 100 µM | UACC-257 > 100 µM | OVCAR-8 > 100 µM | SK-MEL-2 > 100 µM | NCI-H23 > 100 µM | NCI-H226 > 100 µM | UACC-62 > 100 µM

COC(=O)c1ccc2n[se]nc2c1
inactive: KM12 > 100 µM | SK-MEL-28 > 100 µM | Malme-3M > 100 µM | TK-10 > 100 µM | ACHN > 100 µM | SF-268 > 100 µM | SN12C > 100 µM | MOLT-4 > 100 µM | SK-OV-3 > 100 µM | UACC-257 > 100 µM | A498 > 100 µM | OVCAR-8 > 100 µM | SK-MEL-2 > 100 µM | NCI-H23 > 100 µM | IGROV-1 > 100 µM | UACC-62 > 100 µM | OVCAR-5 > 100 µM

O=C1c2ccccc2C(=O)N1CCN(CCN1C(=O)c2ccccc2C1=O)Cn1cccn1
inactive: HOP-92 > 100 µM | KM12 > 100 µM | SK-MEL-28 73.8 µM | TK-10 > 100 µM | ACHN > 100 µM | SF-268 > 100 µM | SN12C > 100 µM | MOLT-4 > 100 µM | SK-OV-3 > 100 µM | UACC-257 > 100 µM | A498 > 100 µM | OVCAR-8 > 100 µM | SK-MEL-2 > 100 µM | UACC-62 28.2 µM

Cc1cc(NS(=O)(=O)c2ccc(Nc3c4ccccc4nc4c(C(=O)NCCN(C)C)cccc34)cc2)no1
active: MOLT-4 0.208 µM | NCI-H226 0.524 µM
inactive: KM12 9.25 µM | SK-MEL-28 10.9 µM | TK-10 35.1 µM | ACHN 3.71 µM | SF-268 1.78 µM | SN12C 3.01 µM | OVCAR-8 4.18 µM | SK-MEL-2 6.43 µM | NCI-H23 4.46 µM | IGROV-1 2.37 µM | UACC-62 2.55 µM | OVCAR-5 17.9 µM

C=CCCC(C)N(C(=O)OC(C)(C)C)S(=O)(=O)c1ccc(C)cc1 (centres undefined)
inactive: HOP-92 40.2 µM | KM12 > 100 µM | SK-MEL-28 > 100 µM | Malme-3M > 100 µM | TK-10 > 100 µM | ACHN > 100 µM | SF-268 > 100 µM | SN12C > 100 µM | MOLT-4 97.1 µM | SK-OV-3 > 100 µM | UACC-257 > 100 µM | OVCAR-8 > 100 µM | SK-MEL-2 > 100 µM | NCI-H23 > 100 µM | IGROV-1 > 100 µM | NCI-H226 > 100 µM | UACC-62 77.4 µM | OVCAR-5 > 100 µM

O=C(Nc1ccccc1SC(/C=C/NNC1=NN=C(c2ccccc2)C(c2ccccc2)N1)c1ccccc1)c1ccc(Cl)cc1Cl (centres undefined)
inactive: KM12 38.1 µM | SK-MEL-28 38.8 µM | Malme-3M > 100 µM | TK-10 > 100 µM | ACHN 82.8 µM | SF-268 35.6 µM | SN12C 32.6 µM | MOLT-4 > 10 µM | SK-OV-3 49.3 µM | UACC-257 > 100 µM | A498 43.5 µM | OVCAR-8 74.5 µM | SK-MEL-2 20.9 µM | NCI-H23 22.8 µM | IGROV-1 50 µM | NCI-H226 31.4 µM | UACC-62 36.8 µM | OVCAR-5 44.8 µM

CC1OC(=O)C(O)=C1O (centres undefined)
inactive: HOP-92 > 100 µM | KM12 > 100 µM | Malme-3M > 100 µM | TK-10 > 100 µM | ACHN > 100 µM | SF-268 47.2 µM | SN12C > 100 µM | MOLT-4 > 100 µM | SK-OV-3 > 100 µM | UACC-257 > 100 µM | OVCAR-8 > 100 µM | SK-MEL-2 > 100 µM | NCI-H23 > 100 µM | IGROV-1 > 100 µM | NCI-H226 > 100 µM | UACC-62 > 100 µM | OVCAR-5 > 100 µM

CCOC(=O)/C(=C/c1ccc(N(C)C)cc1)N(CC)CC
inactive: HOP-92 > 100 µM | KM12 79.8 µM | SK-MEL-28 > 100 µM | Malme-3M > 100 µM | TK-10 > 100 µM | ACHN 76.2 µM | SF-268 76.6 µM | SN12C 84.7 µM | MOLT-4 32.2 µM | SK-OV-3 > 100 µM | UACC-257 35.8 µM | OVCAR-8 > 100 µM | SK-MEL-2 58.2 µM | NCI-H23 49.4 µM | IGROV-1 > 100 µM | NCI-H226 21.1 µM | UACC-62 74.5 µM | OVCAR-5 > 100 µM
